{
  "source": "paper PMC3118409",
  "about": "(Cell, 2011)",
  "key": {"[1]": {"assay_type": "in vivo, mice", "conditions": "5 h"}, "KMO [2]": {"system": "KMO", "assay": "In vivo microdialysis in prefrontal cortex of rats treated 7 days with JM6", "conditions": "JM6 for 7 days, 100 mg/kg/day p.o. (legend: 75 mg/kg/day)"}, "APPtg mice [3]": {"system": "APPtg mice", "assay": "Morris water maze in APPtg mice", "assay_type": "in vivo"}, "APPtg mice [4]": {"system": "APPtg mice", "assay": "Elevated plus maze in APPtg mice", "assay_type": "in vivo", "conditions": "JM6 75 mg/kg/day p.o. for ~120 days"}, "APPtg mice [5]": {"system": "APPtg mice", "assay": "Neuropathology", "assay_type": "in vivo"}, "APPtg mice [6]": {"system": "APPtg mice", "assay_type": "in vivo", "conditions": "JM6 75 mg/kg/day p.o. for 120 days"}, "R6/2 mice [7]": {"system": "R6/2 mice", "assay": "Survival, body weight and rotarod in R6/2 mice", "assay_type": "in vivo", "conditions": "chronic JM6 p.o., data not shown"}, "WT mice": {"system": "WT mice", "assay": "Chronic tolerability of JM6 in WT mice", "assay_type": "in vivo", "conditions": "JM6 25 mg/kg/day p.o. for 12 months, data not shown"}, "R6/2 mice [8]": {"system": "R6/2 mice", "assay": "Neuropathology", "assay_type": "in vivo"}, "KMO [9]": {"system": "KMO", "assay": "In vivo microdialysis in striatum and serum sampling of rats after acute JM6", "conditions": "for Level in brain dialysate: JM6 100 mg/kg p.o., data not shown"}, "KMO [10]": {"biological_target": "KMO (Rattus norvegicus, UniProt O88867)", "sequence (O88867 whole entry)": "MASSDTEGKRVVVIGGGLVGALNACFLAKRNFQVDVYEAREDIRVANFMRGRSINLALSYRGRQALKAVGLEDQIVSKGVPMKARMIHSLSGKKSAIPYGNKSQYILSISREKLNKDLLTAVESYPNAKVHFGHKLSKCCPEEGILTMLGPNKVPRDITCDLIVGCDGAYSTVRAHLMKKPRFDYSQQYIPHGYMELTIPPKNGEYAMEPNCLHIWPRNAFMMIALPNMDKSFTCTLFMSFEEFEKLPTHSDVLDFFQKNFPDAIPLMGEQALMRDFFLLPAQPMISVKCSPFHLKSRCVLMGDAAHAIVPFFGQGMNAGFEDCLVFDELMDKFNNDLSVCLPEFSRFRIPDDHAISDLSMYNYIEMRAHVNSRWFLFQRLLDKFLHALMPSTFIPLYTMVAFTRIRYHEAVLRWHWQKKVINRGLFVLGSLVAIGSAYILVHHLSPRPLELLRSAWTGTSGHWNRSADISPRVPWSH", "assay": "Inhibition of KMO", "assay_type": "biochemical", "conditions": "read-out: IC50 for KMO"}, "[11]": {"assay": "Ro 61-8048 levels in plasma and tissues of chronically JM6-treated R6/2 mice", "assay_type": "in vivo"}, "[12]": {"assay": "Metabolic stability of Ro 61-8048", "assay_type": "in vitro ADME", "conditions": "data not shown"}, "[13]": {"biological_target": "kynurenine aminotransferase II (KAT II) (Rattus norvegicus, UniProt Q64602)", "sequence (Q64602 30-425)": "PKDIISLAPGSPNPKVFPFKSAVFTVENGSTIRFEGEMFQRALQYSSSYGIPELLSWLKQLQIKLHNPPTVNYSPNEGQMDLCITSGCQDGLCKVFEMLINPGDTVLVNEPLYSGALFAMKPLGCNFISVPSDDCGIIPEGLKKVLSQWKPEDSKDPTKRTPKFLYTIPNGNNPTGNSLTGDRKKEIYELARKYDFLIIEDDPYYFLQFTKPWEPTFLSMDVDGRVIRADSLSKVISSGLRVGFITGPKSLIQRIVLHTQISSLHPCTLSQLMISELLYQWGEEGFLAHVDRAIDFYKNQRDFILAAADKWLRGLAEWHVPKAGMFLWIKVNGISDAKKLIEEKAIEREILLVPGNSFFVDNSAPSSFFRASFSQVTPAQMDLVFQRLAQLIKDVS", "assay": "Reverse microdialysis of the KAT II inhibitor ESBA in JM6-treated rats", "assay_type": "in vivo", "conditions": "JM6 100 mg/kg p.o., ESBA 1 mM locally for 2 h by reverse microdialysis"}, "[14]": {"conditions": "WT mice, single JM6 300 mg/kg p.o., LC/MS, 300 mg/kg"}, "[15]": {"conditions": "JM6 75 mg/kg/day p.o., data not shown"}, "[16]": {"conditions": "JM6 7.5 or 25 mg/kg/day p.o., 12-week-old mice"}, "[17]": {"conditions": "WT mice, single JM6 300 mg/kg p.o., LC/MS"}, "[18]": {"conditions": "R6/2 mice chronically treated with JM6"}},
  "note": "“And” between values parts separate entries of the source, which are not always exact repeats. Equal entries are not always repeated. Where two headings read alike, the source gives them in different places.",
  "data": [
    {"compound": "COc1ccc(S(=O)(=O)Nc2nc(-c3cccc([N+](=O)[O-])c3)c(CN3CCCCC3)s2)cc1OC", "note": "[JM6, 2-(3,4-dimethoxybenzenesulfonylamino)-4-(3-nitrophenyl)-5-(piperidin-1-yl)methylthiazole]", "values": [
      {"measurement": "Muscle and liver levels after acute dosing", "setting": "[1]; WT mice, JM6 300 mg/kg p.o.", "value": "negligible"},
      {"measurement": "JM6 concentration in brain", "setting": "[1]; [14]", "value": "119 ± 46", "unit": "nM"},
      {"measurement": "JM6 concentration in plasma", "setting": "[1]; [14]", "value": "39.1 ± 13.2", "unit": "µM"},
      {"measurement": "Extracellular glutamate levels in the brain (prefrontal cortex)", "setting": "KMO [2]", "value": "significant reduction"},
      {"measurement": "Spatial memory in Morris water maze, WT mice", "setting": "APPtg mice [3]; JM6 75 mg/kg/day p.o.", "value": "no effect"},
      {"measurement": "Spatial memory in Morris water maze, APPtg mice", "setting": "APPtg mice [3]; JM6 75 mg/kg/day p.o. from 2 months of age, tested at ~6 months", "value": "significant improvement"},
      {"measurement": "Spatial learning in WT or APPtg mice", "setting": "APPtg mice [3]; [15]", "value": "did not influence"},
      {"measurement": "Increase in distance traveled in the open arm of the EPM, APPtg mice", "setting": "APPtg mice [4]", "value": "significantly attenuated"},
      {"measurement": "Time spent in the open arm of the elevated plus maze, APPtg mice", "setting": "APPtg mice [4]", "value": "not significantly different from WT littermate controls"},
      {"measurement": "Total distance traveled in the EPM (open and closed arm), APPtg mice", "setting": "APPtg mice [4]", "value": "not changed"},
      {"measurement": "Synaptic loss (synaptophysin) in cortex and hippocampus, APPtg mice", "setting": "APPtg mice [5]; JM6 75 mg/kg/day p.o. for 120 days, ~7 months of age", "value": "prevented"},
      {"measurement": "Aβ plaque load in hippocampus and cortex, APPtg mice", "setting": "APPtg mice [5]; [15]", "value": "did not have a significant effect"},
      {"measurement": "Brain 3-HK levels, APPtg mice, vs control mice", "setting": "APPtg mice [6]", "value": "not significantly different"},
      {"measurement": "Brain KMO activity, APPtg mice, vs control mice", "setting": "APPtg mice [6]", "value": "not significantly different"},
      {"measurement": "Brain KYNA levels, APPtg mice", "setting": "APPtg mice [6]", "value": "increased"},
      {"measurement": "Brain QUIN levels, APPtg mice, vs control mice", "setting": "APPtg mice [6]", "value": "not significantly different"},
      {"measurement": "Plasma KYNA levels, APPtg mice", "setting": "APPtg mice [6]", "value": "increased"},
      {"measurement": "Plasma QUIN levels, APPtg mice, vs control mice", "setting": "APPtg mice [6]", "value": "not significantly different"},
      {"measurement": "Body weight of R6/2 mice", "setting": "R6/2 mice [7]", "value": "did not influence"},
      {"measurement": "Performance on accelerating rotarod, R6/2 mice", "setting": "R6/2 mice [7]; early stages of disease", "value": "modestly improved"},
      {"measurement": "Adverse effects on open field behavior, motor performance, or body weight", "setting": "WT mice", "value": "no adverse effects"},
      {"measurement": "Inclusion body size or abundance in frontoparietal cortex, R6/2 mice", "setting": "R6/2 mice [8]; JM6 25 mg/kg/day p.o. from 4 weeks of age, EM48 immunostaining", "value": "did not influence"},
      {"measurement": "Iba1-positive cells (microglia) vs vehicle-treated controls, R6/2 mice", "setting": "R6/2 mice [8]; JM6 7.5 or 25 mg/kg/day p.o. from 4 weeks of age", "value": "significantly fewer"},
      {"measurement": "Fos immunoreactivity in striatum and cortex, R6/2 mice", "setting": "R6/2 mice [8]; [16]", "value": "prevented the loss"},
      {"measurement": "Synaptophysin in striatum and cortex, R6/2 mice", "setting": "R6/2 mice [8]; [16]", "value": "prevented the loss"},
      {"measurement": "Level in brain dialysate", "setting": "KMO [9]", "value": "< 10", "unit": "nM"},
      {"measurement": "Serum KYNA level, % of baseline", "setting": "KMO [9]; single JM6 100 mg/kg p.o., by 5 h", "value": 344, "unit": "%"},
      {"measurement": "Extracellular KYNA level in brain (striatum), % of baseline", "setting": "KMO [9]; single JM6 100 mg/kg p.o., by 5 h, microdialysis", "value": 180, "unit": "%"}
    ]},
    {"compound": "COc1ccc(S(=O)(=O)Nc2nc(-c3cccc([N+](=O)[O-])c3)cs2)cc1OC", "note": "[Ro 61-8048, 3,4-dimethoxy-[-N-4-(nitrophenyl)thiazol-2yl]-benzenesulfonamide]", "values": [
      {"measurement": "IC50", "setting": "KMO [10]", "value": 37, "unit": "nM"},
      {"measurement": "Muscle and liver levels after acute dosing", "setting": "[1]; WT mice, JM6 300 mg/kg p.o.", "value": "negligible"},
      {"measurement": "Ro 61-8048 released from JM6, brain level as % of plasma levels", "setting": "[1]; WT mice, single JM6 300 mg/kg p.o.", "value": 0.002, "unit": "%"},
      {"measurement": "Ro 61-8048 released from JM6, concentration in brain", "setting": "[1]; [17]", "value": "18 nM and 18 ± 5 nM"},
      {"measurement": "Ro 61-8048 released from JM6, concentration in plasma", "setting": "[1]; [17]", "value": "7 µM and 7.2 ± 0.8 µM"},
      {"measurement": "Ro 61-8048 released from JM6, concentration in liver", "setting": "[1]; mice, JM6 300 mg/kg p.o.", "value": 132, "unit": "nM"},
      {"measurement": "Ro 61-8048 released from JM6, concentration in muscle", "setting": "[1]; mice, JM6 300 mg/kg p.o.", "value": 149, "unit": "nM"},
      {"measurement": "Plasma concentration relative to IC50 for KMO", "setting": "[11]; [18]", "value": "more than eightfold"},
      {"measurement": "Ro 61-8048 released from JM6, concentration in plasma", "setting": "[11]; [18]", "value": "~ 280 nM"},
      {"measurement": "Ro 61-8048 released from JM6 in brain or muscle homogenates", "setting": "[11]; R6/2 mice chronically treated with JM6, data not shown", "value": "could not be detected"},
      {"measurement": "Metabolic stability", "setting": "[12]", "value": "metabolically unstable"},
      {"measurement": "Level in brain dialysate", "setting": "KMO [9]", "value": "< 10", "unit": "nM"}
    ]},
    {"compound": "CCS(=O)(=O)c1ccc(C(=O)C[C@H](N)C(=O)O)cc1.Cl", "note": "[ESBA, (S)-(4-ethylsulfonyl)benzoylalanine hydrochloride]", "values": [
      {"measurement": "Effect on JM6-induced increases in brain KYNA", "setting": "[13]", "value": "prevented completely"},
      {"measurement": "Effect on KYNA levels in serum", "setting": "[13]", "value": "unaffected"}
    ]}
  ]
}
